The source of these data is US6649623B1, “Cyclic amine derivatives and use thereof” (Shionogi & Co., Ltd., priority 1999, dated 2003).

Like-named read-outs stand apart in the source and are kept apart here.

In assay [1] the test system is KK-Ay mouse. In words: 7-day subcutaneous administration to KK-Ay mouse: body weight, food intake, blood glucose and insulin. The format is in vivo. The following applies: 80 mg/kg s.c. for 7 days; for response vs control in vivo at 80 mg/kg: sc, 192 h, male KK-Ay mouse, average; for food intake (in words): KK-Ay mouse. As to the method:
After 80 mg/kg of the present compound was administered subcutaneously for 7 days to 7-8 week aged male KK-Ay mouse (n=5˜7, CLEA JAPAN, INC), the amount of food intake from seventh day to eighth day, and body weight of eighth day were measured. For a control group, physiological saline was used. After the body weight was measured, the blood was collected from abdominal aorta by a syringe containing 50 U heparin and centrifuged 12,000×g for five min. Glucose in blood was measured by New Blood.Sugar.Test (Boehringer Ingelheim) and insulin was measured by Insulin-EIA Test (GLAOZYME). Each value is an average value and represented by percent to each value of eighth days in the control group. As to the compounds of and after Example 13, each corresponding hydrochloride was used.

Assay [2] deals with KK-Ay mouse. In words: Plasma leptin concentration in KK-Ay mouse (mouse leptin RIA kit). The format is in vivo. The following applies: 40 mg/kg s.c., after 24 hours, saline group 26.7±1.9 ng/ml. The protocol:
The compound 3cs of Example 3 (40 mg/kg ) was administered subcutaneously to KK-Ay mouse. After 24 hours, the concentration of leptin in plasma was measured by using mouse leptin RIA measuring kit (Linco). The blood was collected from abdominal aorta by a syringe containing 50 U heparin and centrifuged 12,000×g for 5 min to give plasma.

The mark [3] stands for this setting: body weight of eighth day, percent to value of control group (physiological saline), read-out: Body weight.
The mark [4] stands for this setting: food intake from seventh to eighth day, percent to value of control group, read-out: Food intake.
The mark [5] stands for this setting: glucose in blood on eighth day, percent to value of control group, read-out: Glucose.
Setting [6] is: insulin in blood on eighth day, percent to value of control group, read-out: Insulin.

Regarding `Fc1ccc(OCCCN2CC=CCC2)c(F)c1` [Example 1, 1-[3-(2,4-Difluoro-phenoxy)-propyl]-1,2,3,6-tetrahydro-pyridine], the response vs control in vivo at 80 mg/kg is 85% in assay [1] (setting [3]), 76% in assay [1] (setting [4]), 56% in assay [1] (setting [5]) and 12% in assay [1] (setting [6]).
Consider `Cc1ccc(F)c(OCCCN2CC=CCC2)c1` [Example 45], for which the response vs control in vivo at 80 mg/kg in assay [1] (setting [3]) was found to be 94%; in assay [1] (setting [4]), 82%; in assay [1] (setting [5]), 79%; in assay [1] (setting [6]) it was 70%.
The like results for `Cc1cc(OCCCN2CC=CCC2)ccc1F` [Example 23] were, in that order, 89%, 76%, 67% and 91%.
Turning to `FC(F)(F)c1cc(OCCCN2CC=CCC2)cc(C(F)(F)F)c1` [Example 41], the response vs control in vivo at 80 mg/kg in assay [1] (setting [3]) is 88%; in assay [1] (setting [4]) it was 77%; in assay [1] (setting [5]), 56%; in assay [1] (setting [6]), 48%.
With `Clc1ccc(NCCCN2CC=CCC2)cc1Cl` [Example 11, (3,4-Dichlorophenyl)-[3-(3,6-dihydro-2-H-pyridin-1-yl)propyl]-amine], the response vs control in vivo at 80 mg/kg in assay [1] (setting [3]) amounted to 94%; in assay [1] (setting [4]) it was 92%; in assay [1] (setting [5]) it was 93%; in assay [1] (setting [6]) it was 74%.
`Cc1ccc(OCCCN2CC=CCC2)cc1C` [Example 27]: the response vs control in vivo at 80 mg/kg in assay [1] (setting [3]) was determined as 93%; in assay [1] (setting [4]), 77%; in assay [1] (setting [5]), 87%; in assay [1] (setting [6]), 42%.
`Fc1ccc(OCCCN2CC=CCC2)cc1F` [Example 32]: the response vs control in vivo at 80 mg/kg in assay [1] (setting [3]) came to 92%; in assay [1] (setting [4]), 85%; in assay [1] (setting [5]), 73%; in assay [1] (setting [6]) it was 69%.
For `Fc1cccc(F)c1OCCCN1CC=CCC1` [Example 36], the response vs control in vivo at 80 mg/kg in assay [1] (setting [3]) came to 86%; in assay [1] (setting [4]) it was 75%; in assay [1] (setting [5]), 61%; in assay [1] (setting [6]) it was 54%.
Take `Clc1ccc(OCCCN2CC=CCC2)cc1Cl` [Example 3, 1-[3-(3,4-Dichloro-phenoxy)-propyl]-1,2,3,6-tetrahydro-pyridine]: the “food intake (in words)” value in assay [1] is listed as “little repressed”. Besides, the response vs control in vivo at 80 mg/kg in assay [1] (setting [3]) is 84%; in assay [1] (setting [4]), 82%; in assay [1] (setting [5]), 73%; in assay [1] (setting [6]) it was 49%. Besides, in assay [2], the “concentration of leptin in plasma” value was found to be 44.8 ± 5.2 ng/mL.
With `CC(C)(C)c1cccc(OCCCN2CC=CCC2)c1` [Example 49], the response vs control in vivo at 80 mg/kg in assay [1] (setting [3]) amounted to 91%; in assay [1] (setting [4]), 80%; in assay [1] (setting [5]), 56%; in assay [1] (setting [6]) it was 73%.
With `Brc1ccc(OCCCN2CC=CCC2)c(Br)c1` [Example 2, 1-[3-(2,4-Dibromo-phenoxy)-propyl]-1,2,3,6-tetrahydro-pyridine], the “food intake (in words)” value in assay [1] is recorded as “little repressed”. For the same compound, the response vs control in vivo at 80 mg/kg in assay [1] (setting [3]) was 93%; in assay [1] (setting [4]), 100%; in assay [1] (setting [5]) it was 79%; in assay [1] (setting [6]), 41%.
With `Clc1ccc(OCCN2CC=CCC2)cc1Cl` [Example 9, 1-[2-(3,4-Dichloro-phenoxy)-ethyl]-1,2,3,6-tetrahydro-pyridine], the response vs control in vivo at 80 mg/kg was determined as 87% in assay [1] (setting [3]), 83% in assay [1] (setting [4]), 71% in assay [1] (setting [5]) and 53% in assay [1] (setting [6]).
The like results for `Brc1ccc(-c2ccc(OCCCN3CC=CCC3)cc2)cc1` [Example 30] were, in that order, 95%, 73%, 62% and 50%.
Consider `Cc1ccc(OCCCN2CC=CCC2)c(Cl)c1` [Example 25], for which the response vs control in vivo at 80 mg/kg in assay [1] (setting [3]) came out at 90%; in assay [1] (setting [4]), 73%; in assay [1] (setting [5]), 58%; in assay [1] (setting [6]), 63%.
With `FC(F)(F)c1cccc(OCCCN2CC=CCC2)c1` [Example 39], the response vs control in vivo at 80 mg/kg in assay [1] (setting [3]) was 95%; in assay [1] (setting [4]) it was 78%; in assay [1] (setting [5]), 70%; in assay [1] (setting [6]), 52%.
`Clc1ccc(COCCCN2CC=CCC2)cc1Cl` [Example 8, 1-[3-(3,4-Dichloro-benzyloxy)-propyl]-1,2,3,6-tetrahydro-pyridine]: the response vs control in vivo at 80 mg/kg is 94% in assay [1] (setting [3]), 96% in assay [1] (setting [4]), 78% in assay [1] (setting [5]) and 31% in assay [1] (setting [6]).
Consider `COc1cccc(OCCCN2CC=CCC2)c1` [Example 5, 1-[3-(3-Methoxy-phenoxy)-propyl]-1,2,3,6-tetrahydro-pyridine], for which the response vs control in vivo at 80 mg/kg in assay [1] (setting [3]) is 94%; in assay [1] (setting [4]), 88%; in assay [1] (setting [5]) it was 62%; in assay [1] (setting [6]), 38%.
Regarding `Clc1ccc(OCCCN2CC=CCC2)c(Cl)c1` [Example 6, 1-[3-(2,4-Dichloro-phenoxy)-propyl]-1,2,3,6-tetrahydro-pyridine], the “food intake (in words)” value in assay [1] was “little repressed”. Besides, the response vs control in vivo at 80 mg/kg in assay [1] (setting [3]) was 85%; in assay [1] (setting [4]), 84%; in assay [1] (setting [5]) it was 76%; in assay [1] (setting [6]), 32%.
With `C1=CCN(CCCOc2ccc3sccc3c2)CC1` [Example 17], the response vs control in vivo at 80 mg/kg in assay [1] (setting [3]) was 94%; in assay [1] (setting [4]), 84%; in assay [1] (setting [5]) it was 99%; in assay [1] (setting [6]) it was 84%.
As to `Fc1cc(F)c(OCCCN2CC=CCC2)c(F)c1` [Example 46], the response vs control in vivo at 80 mg/kg turned out to be 90% in assay [1] (setting [3]), 91% in assay [1] (setting [4]), 58% in assay [1] (setting [5]) and 53% in assay [1] (setting [6]).
Take `FC(F)(F)c1ccc(COc2ccc(OCCCN3CC=CCC3)cc2Cl)cc1` [Example 33]: the response vs control in vivo at 80 mg/kg came to 93% in assay [1] (setting [3]), 72% in assay [1] (setting [4]), 54% in assay [1] (setting [5]) and 44% in assay [1] (setting [6]).
As for `FC(F)(F)c1ccc(Oc2ccc(OCCCN3CC=CCC3)cc2)cc1` [Example 44], the response vs control in vivo at 80 mg/kg in assay [1] (setting [3]) was determined as 82%; in assay [1] (setting [4]) it was 59%; in assay [1] (setting [5]), 54%; in assay [1] (setting [6]), 21%.
`Clc1cccc(OCCCN2CC=CCC2)c1` [Example 4, 1-[3-(3-Chlorophenoxy)-propyl]-1,2,3,6-tetrahydro-pyridine]: the response vs control in vivo at 80 mg/kg came out at 87% in assay [1] (setting [3]), 79% in assay [1] (setting [4]), 84% in assay [1] (setting [5]) and 47% in assay [1] (setting [6]).
The corresponding values for `Clc1cc(Cl)cc(OCCCN2CC=CCC2)c1` [Example 21] are 89%, 74%, 80% and 53%.
As to `Clc1ccc(OCCCCN2CC=CCC2)cc1Cl` [Example 10, 1-[4-(3,4-Dichloro-phenoxy)-butyl]-1,2,3,6-tetrahydro-pyridine], the response vs control in vivo at 80 mg/kg in assay [1] (setting [3]) turned out to be 94%; in assay [1] (setting [4]), 82%; in assay [1] (setting [5]) it was 87%; in assay [1] (setting [6]), 31%.
Regarding `Clc1ccc(OCCCN2CC=CCC2)c(Cl)c1Cl` [Example 7, 1-[3-(2,3,4-Trichloro-phenoxy)-propyl]-1,2,3,6-tetrahydro-pyridine], the response vs control in vivo at 80 mg/kg amounted to 83% in assay [1] (setting [3]), 78% in assay [1] (setting [4]), 72% in assay [1] (setting [5]) and 51% in assay [1] (setting [6]).
